Measured values from patent US6828091B2, “Method of identifying immunosuppressive agents” (Cytovia, Inc., priority 2000, dated 2004).

How the values were obtained:
activated T lymphocytes [1] = experiment: Cytotoxicity with chromogenic reporter of mitochondrial activity, activated T lymphocytes; type: cell-based, Human; details: 48 hr, absorbance 490 nm, FIG. 1 or 2
Procedure: (§1) Human peripheral blood mononuclear cells (PBMC), were purchased from Clonetics, San Diego (cat. no. CC2702). These cells were primarily enriched in T lymphocytes by a process of leukapheresis and density gradient centrifugation (Clonetics), and contain some monocytes and no B lymphocytes or Dendritic cells. Cells are cultured (0.75×10^6 cells/ml) in RPMI 1640 medium containing 10% fetal bovine serum (Gibco), 2 mM L-Glutamine, 25 mM Hepes, 1 mM sodium pyruvate, 1 mM non essential aminoacids (NEAA) and 1% penicillin/streptomycin solution. Cells were then activated with 100 ng/ml of murine monoclonal antibody to the human T cell receptor (Liu, Y-C., et al., J. Biol. Chem. 272: 9979 (1996)). Cells were incubated at 37° C. in a 5% CO2-95% humidity incubator for 3 days. […] In a parallel experiment, resting T lymphocytes that were not activated in the above mentioned method were used directly in an experiment.
(§2) An aliquot of 45 μl of activated or resting T lymphocytes (containing 10^5 cells) was added to wells of a 96-well microtiter plate containing 5 μl of a 10% DMSO in RPMI 1640 medium containing different dilutions of the test compounds. […] Using a plate reader (Model 1420, Wallac Instruments), samples were read at absorbance 490 nm.

resting T lymphocytes [2] = experiment: Cytotoxicity with chromogenic reporter of mitochondrial activity, resting T lymphocytes; type: cell-based, Human; details: 48 hr, absorbance 490 nm, FIG. 1 or 2
Procedure: as §1, §2

activated T lymphocytes [3] = experiment: Caspase cascade activation with fluorogenic reporter, activated T lymphocytes; type: cell-based, Human; details: for Caspase Activity in Activated Cells 24 Hr Induction (Ratio): OKT3-activated human T lymphocytes, 24 hr incubation, ratio Net Sample RFU/Net Control RFU; for Induction of apoptosis in activated T cells (in words): 24 hr
Procedure: (§3) Human peripheral blood mononuclear cells (PBMC), were purchased from Clonetics, San Diego (cat. No. CC2702). These cells were primarily enriched in T lymphocytes by a process of leukapheresis and density gradient centrifugation (Clonetics), and contain some monocytes and no B lymphocytes or Dendritic cells. Cells are cultured (0.75×10^6 cells/ml) in RPMI 1640 medium containing 10% fetal bovine serum (Gibco), 2 mM L-Glutamine, 25 mM Hepes, 1 mM sodium pyruvate, 1 mM non-essential aminoacids (NEAA) and 1% penicillin/streptomycin solution. Cells were then activated with 100 ng/ml of murine monoclonal antibody (OKT3) to the human T cell receptor (Liu, Y-C., et al., J. Biol. Chem 272: 9979 (1996)). Cells were incubated at 37° C. in a 5% CO2-95% humidity incubator for 3 days. […] In a parallel experiment, resting T lymphocytes that were not activated by the above method were used directly in an experiment. An aliquot of 45 μl of activated or resting T lymphocytes (containing 10^5 cells) was added to a well of a 96-well microtiter plate containing 5 μl of a 10% DMSO in RPMI 1640 medium containing serial 2-fold dilution of the different test compounds starting at a concentration of 10 uM.
(§4) An aliquot of 45 μl of cells was also added to a well of a 96-well microtiter plate containing 5 μl of a 10% DMSO in RPMI 1640 medium without the test compounds as the control sample. The samples were gently mixed by agitation and then incubated at 37° C. for 24 hr in a 5% CO2-95% humidity incubator. After incubation, the samples were removed from the incubator and 50 μl of a solution containing 20 μM of N-(Ac-DEVD)-N′-ethoxycarbonyl-R110 (SEQ ID NO. 1) fluorogenic substrate U.S. Pat. No. 6,342,611; WO 99/18856), 20 mM DTT(Sigma) in Hanks Balanced Salt Solution (HBSS, Gibco) was added. The samples were mixed by agitation and incubated for 1 hr at room temperature. Using a fluorescent plate reader (Model 1420, Wallac Instruments), an initial reading (T=0) was made approximately […] after addition of the substrate solution, employing excitation at 485 nm and emission at 530 nm, to determine the background fluorescence of the control sample. After the 1 hr incubation, the samples were read for fluorescence as above (T=1 hr).
(§5) Calculation: Measured relative fluorescence unit (RFU) values were used to calculate the gain in fluorescence of the sample with the test compound as follows:
(§6) Sample RFU(T=1 hr)−Sample RFU(T=0)=Net Sample RFU (4)
(§7) and the background gain in fluorescence of the control sample (lacking the test compound) as follows:
(§8) Control RFU(I=1 hr)−Control RFU(I=0)=Net Control RFU (5)
(§9) The relative potency of a given test compound is given by the following ratio:
(§10) (Net Sample RFU)/(Net Control RFU) (6)

resting T lymphocytes [4] = experiment: Caspase cascade activation with fluorogenic reporter, resting T lymphocytes; type: cell-based, Human; details: for Induction of apoptosis in resting T cells (in words): 24 hr; for Caspase Induction in Resting T Cells 24 Hr Induction (Ratio): resting human T lymphocytes, 24 hr incubation, ratio Net Sample RFU/Net Control RFU
Procedure: as §3, §4, §5, §6, §7, §8, §9, §10

[5] = system: collagen induced arthritis; experiment: Collagen-induced arthritis (CIA) mouse model; type: in vivo; details: 1 mg/kg subcutaneously daily from 2nd immunization (Day 21), DBA/1 mice, FIG. 3

Structure (SMILES)	Cytotoxicity to activated T cells (in words) (activated T lymphocytes [1])	Cytotoxicity to resting T cells (in words) (resting T lymphocytes [2])	Caspase Activity in Activated Cells 24 Hr Induction (Ratio) (activated T lymphocytes [3])	Induction of apoptosis in activated T cells (in words) (activated T lymphocytes [3])	Induction of apoptosis in resting T cells (in words) (resting T lymphocytes [4])	Caspase Induction in Resting T Cells 24 Hr Induction (Ratio) (resting T lymphocytes [4])	Decrease in cumulative CIA score [5] [%]
CN[C@@H]1C[C@H]2O[C@@](C)([C@@H]1OC)n1c3ccccc3c3c4c(c5c6ccccc6n2c5c31)C(=O)NC4 [staurosporine]	cytotoxic to both activated and resting T cells	cytotoxic to both activated and resting T cells					
CN(Cc1cnc2nc(N)nc(N)c2n1)c1ccc(C(=O)N[C@@H](CCC(=O)O)C(=O)O)cc1 [methotrexate]	only cytotoxic to activated	not to resting T lymphocytes					
Cc1ccc(C2CC(c3c(O)cc(C)oc3=O)=NCCS2)cc1 (stereo not shown) [5-(4-hydroxy-6-methyl-2H-pyran-2-one-3-yl)-7-(4-methylphenyl)-2,3,6,7-tetrahydro-1,4-thiazepine]			1.0	did not induce apoptosis in either cell type	did not induce apoptosis in either cell type	1.0	
CC(C)=CCC[C@]1(C)C=Cc2c(O)c3c(c(CC=C(C)C)c2O1)O[C@]12C(=C[C@@H]4C[C@H]1C(C)(C)O[C@@]2(C/C=C(/C)C(=O)O)C4=O)C3=O [gambogic acid]			3.4	induced apoptosis in both activated and resting T cells	induced apoptosis in both activated and resting T cells	2.0	
C[C@]12C=CC(=O)C=C1CC[C@@H]1[C@@H]2[C@@H](O)C[C@@]2(C)[C@H]1CC[C@]2(O)C(=O)CO [predisolone, Prednisolone]							75
